Results as given in patent publication US20250313563A1, “GLYCOGEN SYNTHASE KINASE 3 INHIBITORS AND USES THEREOF” (The Broad Institute, Inc., priority 2022, published 2025).
Like-named read-outs stand apart in the source and are kept apart here.

Columns and labels:
[1] = target: GSK3α (GST-full length GSK3α) (Homo sapiens (Human), UniProt P49840); experiment: GSK3α TR-FRET kinase assay; format: biochemical; settings: IC50
Method in brief: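 Readout: anti-pSer641 Tb antibody/streptavidin-d2 signal after 60 min, expressed as 665/615 ratio and fitted versus log concentration for IC50. Enzyme: 1 nM GST-GSK3 (α or β), compound-preincubated 30 min. Conditions: pH 7.5 Tris buffer with MgCl2, DTT, BSA; ATP at 4 or 2 μM, or 1 mM; 100 min.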

[2] = target: GSK3b (GST-full length GSK3b) (Homo sapiens (Human), UniProt P49841); experiment: GSK3b TR-FRET kinase assay; format: biochemical; settings: IC50
GSK3b (GST-full length GSK3b), sequence (P49841 whole entry): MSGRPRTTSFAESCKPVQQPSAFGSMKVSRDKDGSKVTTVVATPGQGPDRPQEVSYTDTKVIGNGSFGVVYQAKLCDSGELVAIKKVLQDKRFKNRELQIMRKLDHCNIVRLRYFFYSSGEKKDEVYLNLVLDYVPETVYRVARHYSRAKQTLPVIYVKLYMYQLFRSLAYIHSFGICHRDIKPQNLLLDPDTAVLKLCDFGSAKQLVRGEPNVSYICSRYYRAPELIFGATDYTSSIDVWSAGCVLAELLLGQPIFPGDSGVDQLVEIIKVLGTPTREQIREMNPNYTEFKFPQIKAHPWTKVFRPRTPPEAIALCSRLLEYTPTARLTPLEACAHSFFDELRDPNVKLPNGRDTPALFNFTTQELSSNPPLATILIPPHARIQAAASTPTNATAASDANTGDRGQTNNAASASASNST
Method: TR-FRET Assay: The assay was performed in a white, 384 well, low volume, flat bottom plate (Grenier). After a 30 minute preincubation in assay buffer with the indicated concentration of compound, the kinase activity was initiated by the addition of the substrates. 1 nM GSK3α (GST-full length GSK3α [SignalChem G08-10G]) or 1 nM GSK3b (GST-full length GSK3b: [SignalChem G08-9G]) were then incubated at ambient temperature for 100 minutes in 10 μL of 50 mM Tris, pH 7.5, 20 mM MgCl2, 0.05 mM DTT, 100 μg/mL BSA and 1% DMSO, with 200 nM biotinylated peptide substrate (biotinylated and S645 phosphorylated glycogen synthase 631-650) and either 4 μM ATP (GSK3α, Table 16) or 2 μM ATP (GSK3b, Table 16) or 1 mM ATP (Table 17). The kinase activity was quenched with 2 μL of 250 mM EDTA. A 10 μL volume of 40 nM Strepavidin-d2, 2 nM Tb^2+-pSer641 antibody in TR-FRET Detection Buffer (Invitrogen) was then added. After 60 min at room temperature the plate was read on Envision plate reader using Ex: 340 nm, Em: 615 nm and […]. The normalized 665/615 Signal ratio versus log compound concentration was analyzed by XLFIT to yield IC50 values.

[3] = 1 nM GSK3α, 4 μM ATP, 30 minute preincubation, geometric mean, read-out: GSK3-A TR-FRET BIOCHEMICAL (TR-FRET), GMean
[4] = 1 nM GSK3b, 2 μM ATP, 30 minute preincubation, geometric mean, read-out: GSK3-B TR-FRET BIOCHEMICAL (TR-FRET), GMean
[5] = read-out: GSK3-A (TR-FRET 1 mM ATP), GMean, 1 mM ATP, geometric mean
[6] = read-out: GSK3-B (TR-FRET 1 mM ATP), GMean, 1 mM ATP, geometric mean

GSK3α (GST-full length GSK3α), sequence (P49840 whole entry): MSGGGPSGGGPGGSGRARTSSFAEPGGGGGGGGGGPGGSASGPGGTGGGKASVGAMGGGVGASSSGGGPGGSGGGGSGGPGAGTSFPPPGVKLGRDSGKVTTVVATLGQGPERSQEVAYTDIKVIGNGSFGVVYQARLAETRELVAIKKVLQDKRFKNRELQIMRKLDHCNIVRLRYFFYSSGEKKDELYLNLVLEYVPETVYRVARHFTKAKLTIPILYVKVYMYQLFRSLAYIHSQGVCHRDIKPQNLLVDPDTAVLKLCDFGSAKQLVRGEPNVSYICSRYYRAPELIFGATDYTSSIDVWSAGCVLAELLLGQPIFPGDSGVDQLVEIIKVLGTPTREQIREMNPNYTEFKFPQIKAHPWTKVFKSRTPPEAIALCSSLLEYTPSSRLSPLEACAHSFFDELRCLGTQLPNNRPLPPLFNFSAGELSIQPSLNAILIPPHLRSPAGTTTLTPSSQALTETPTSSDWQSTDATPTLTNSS

`CC1(C)CC(=O)C2=C(C1)Nc1n[nH]cc1[C@]21CCc2c(F)cccc21` [Compound 806633] gave an IC50 [1, 3] of no more than 100 nM and an IC50 [2, 4] of 100 to 1000 nM.

With `CCC1(c2cccc(-c3ccncn3)c2)C2=C(CC(C)(C)CC2=O)Nc2n[nH]cc21` (stereo not drawn) [Compound 806637] the IC50 [1, 3] was no more than 100 nM and the IC50 [2, 4] was 100 to 1000 nM.

`CC1(C)CC(=O)C2=C(C1)Nc1n[nH]c(Br)c1[C@@]21CCc2c(F)cccc21` [Compound 806938] gave an IC50 [1, 3] of 100 to 1000 nM and an IC50 [2, 4] of 1000 to 5000 nM.

Compound `CC1(C)CC(=O)C2=C(C1)Nc1n[nH]c(Br)c1[C@]21CCc2c(F)cccc21` [Compound 806939] has an IC50 [1, 3] of no more than 100 nM and an IC50 [2, 4] of no more than 100 nM.

`CC[C@]1(c2cccc(N(C)C(C)=O)c2)C2=C(CC(C)(C)CC2=O)Nc2n[nH]cc21` [Compound 810359] showed an IC50 [1, 3] greater than 5000 nM and an IC50 [2, 4] greater than 5000 nM.

`CCC1(c2cccc(COC)c2)C2=C(CC(C)(C)CC2=O)Nc2n[nH]cc21` (stereo not drawn) [Compound 810360] was tested, and the IC50 [1, 3] was no more than 100 nM and the IC50 [2, 4] was 100 to 1000 nM.

For `CCC1(c2cccc(COC)c2)C2=C(CC(C)(C)CC2=O)Nc2n[nH]cc21` (stereo not drawn) [Compound 810362], the IC50 [1, 3] was greater than 1670 nM and the IC50 [2, 4] was greater than 5000 nM.

`CCC1(c2cccc(N3CCOCC3)c2)C2=C(CC(C)(C)CC2=O)Nc2n[nH]cc21` (stereo not drawn) [Compound 810363] was tested, and the IC50 [1, 3] was 100 to 1000 nM and the IC50 [2, 4] was 100 to 1000 nM.

For `CC[C@@]1(c2cccc(N3CCOCC3)c2)C2=C(CC(C)(C)CC2=O)Nc2n[nH]cc21` [Compound 810364], the IC50 [1, 3] was greater than 5000 nM and the IC50 [2, 4] was greater than 5000 nM.

For `CCC1(c2cccc(Br)c2)C2=C(CC(C)(C)CC2=O)Nc2n[nH]c(C(F)(F)F)c21` (stereo not drawn) [Compound 810365], the IC50 [1, 3] was greater than 1670 nM and the IC50 [2, 4] was greater than 1670 nM.

Compound `CC[C@@]1(c2cccc(N3CCCCC3)c2)C2=C(CC(C)(C)CC2=O)Nc2n[nH]cc21` [Compound 810371] has an IC50 [1, 3] greater than 5000 nM and an IC50 [2, 4] greater than 5000 nM.

Compound `CC[C@@]1(c2cccc(C(C)C)c2)C2=C(CC(C)(C)CC2=O)Nc2n[nH]cc21` [Compound 810373] has an IC50 [1, 3] of no more than 100 nM, an IC50 [1, 5] of 100 to 1000 nM and an IC50 [2, 4] of no more than 100 nM. It also gave an IC50 [2, 6] of 1000 to 5000 nM.

For `CC[C@]1(c2cccc(C(C)C)c2)C2=C(CC(C)(C)CC2=O)Nc2n[nH]cc21` [Compound 810375], the IC50 [1, 3] was 1000 to 5000 nM and the IC50 [2, 4] was greater than 5000 nM.

In the case of `CC1(C)CC(=O)C2=C(C1)Nc1n[nH]cc1C2(C)c1cc(C(F)(F)F)ccc1F` (stereo not drawn) [Compound 810376], the IC50 [1, 3] is reported as no more than 100 nM and the IC50 [2, 4] is reported as 100 to 1000 nM.

`CC1(C)CC(=O)C2=C(C1)Nc1n[nH]cc1C2(C)c1cc(Cl)ccc1F` (stereo not drawn) [Compound 810377] showed an IC50 [1, 3] of 100 to 1000 nM and an IC50 [2, 4] of 1000 to 5000 nM.

With `CCC1(c2cccc(N3CCN(C)CC3)c2)C2=C(CC(C)(C)CC2=O)Nc2n[nH]cc21` (stereo not drawn) [Compound 810379] the IC50 [1, 3] was greater than 1670 nM and the IC50 [2, 4] was greater than 5000 nM.

`CCC1(c2cccc(C(F)(F)F)c2)C2=C(CC(C)CC2=O)Nc2n[nH]cc21` (stereo not drawn) [Compound 810451] showed an IC50 [1, 3] of no more than 100 nM and an IC50 [2, 4] of no more than 100 nM.

Work on `CCC1(c2cccc(C(F)(F)F)c2)C2=C(CC(C)CC2=O)Nc2n[nH]cc21` (stereo not drawn) [Compound 810452] yielded an IC50 [1, 3] of 100 to 1000 nM and an IC50 [2, 4] of 1000 to 5000 nM.

Compound `CCC1(c2cccc(C(F)(F)F)c2)C2=C(CC(C)CC2=O)Nc2n[nH]cc21` (stereo not drawn) [Compound 810453] has an IC50 [1, 3] greater than 5000 nM and an IC50 [2, 4] greater than 5000 nM.

Work on `CC1(C)CC(=O)C2=C(C1)Nc1n[nH]c(Br)c1C21CCNc2ccccc21` (stereo not drawn) [Compound 810460] yielded an IC50 [1, 3] of 1000 to 5000 nM and an IC50 [2, 4] greater than 5000 nM.

For `CCC1(c2cccc(C(F)(F)F)c2)C2=C(CC(C)(C)CC2=O)Nc2n[nH]c(Br)c21` (stereo not drawn) [Compound 810464], the IC50 [1, 3] was 1000 to 5000 nM and the IC50 [2, 4] was 1000 to 5000 nM.

`CCC1(c2cccc(C(F)(F)F)c2)C2=C(CC(C)(C)CC2=O)Nc2n[nH]c(Br)c21` (stereo not drawn) [Compound 810466] was tested, and the IC50 [1, 3] was no more than 100 nM, the IC50 [1, 5] was no more than 100 nM and the IC50 [2, 4] was no more than 100 nM. For the same compound, the IC50 [2, 6] was 100 to 1000 nM.

With `CCC1(CC)C2=C(CC(C)(C)CC2=O)Nc2n[nH]cc21` [Compound 810505] the IC50 ([1]; 1 nM GSK3α, 4 μM ATP, 30 minute preincubation, Table 16, read-out: GSK3-A TR-FRET BIOCHEMICAL (TR-FRET)) was 1000 to 5000 nM and the IC50 ([2]; 1 nM GSK3b, 2 μM ATP, 30 minute preincubation, Table 16, read-out: GSK3-B TR-FRET BIOCHEMICAL (TR-FRET)) was greater than 5000 nM.

Work on `CCC1(c2cccc(N3CCCC3)c2)C2=C(CC(C)(C)CC2=O)Nc2n[nH]c(C(F)(F)F)c21` (stereo not drawn) [Compound 810506] yielded an IC50 [1, 3] of no more than 100 nM and an IC50 [2, 4] of no more than 100 nM.

In the case of `CCC1(c2cccc(N3CCOCC3)c2)C2=C(CC(C)(C)CC2=O)Nc2n[nH]c(C(F)(F)F)c21` (stereo not drawn) [Compound 810507], the IC50 [1, 3] is reported as no more than 100 nM and the IC50 [2, 4] is reported as no more than 100 nM.
